Assay [1] has as its system Differentiated L6-myotubes. Put plainly: Glucose uptake in differentiated L6-myotubes (3H-2-deoxy-glucose). The format is cell-based. As to conditions: read-out: Biological example 1: glucose uptake, activity compared to that of isoproterenol.
Assay [2] relates to Intracellular cAMP levels in differentiated cells (L6-myotubes). As to the kind of experiment: Measurement of intracellular cAMP levels (alpha screen cAMP kit). The format is cell-based. The settings on record: 0.25 h, read-out: Biological example 2: intracellular cAMP levels, activity compared to that of isoproterenol. Here is the method: L6-myoblasts were grown in Dulbecco's Modified Eagle's Medium (DMEM) containing 4.5 g/l glucose supplemented with 10% fetal bovine serum, 2 mM L-Glutamine, 50 U/ml penicillin, 50 μg/ml streptomycin and 10 mM HEPES. Cells were plated at 1×10^5 cells per ml in 24-well plates. After reaching 90% confluence the cells were grown in medium containing 2% FBS for 7 days where upon cells differentiated into myotubes. Differentiated cells were serum-starved over night and stimulated with agonist, final concentration 1×10-^5, for 15 min in stimulation buffer (HBSS supplemented with 1% BSA, 5 mM HEPES and 1 mM IBMX, pH 7.4) The medium was then aspirated and to end the reaction 100 μL of 95% EtOH was added to each well of a 24-well plate and cells were kept in −20° C. over night. The EtOH was let to evaporate and 500 μL of lysis buffer (1% BSA, 5 mM HEPES and 0.3% Tween-20, pH 7.4) was added to each well before put in −80° C. for 30 min and then kept in −20° C. Intracellular cAMP levels were detected using an alpha screen cAMP kit (6760635D from Perkin Elmer). The activity for each compound is compared to that of isoproterenol.

[3] abbreviates: agonist final concentration 1×10^−5, L6-myotubes, 3H-2-deoxy-glucose uptake, relative to isoproterenol.
[4] abbreviates: agonist final concentration 1×10-^5, 15 min, differentiated cells, relative to isoproterenol.

Structures are written as SMILES. Counter-ions that a name gives are not always drawn. Like-named read-outs stand apart in the source and are kept apart here.

In the case of `CCC[C@H]1CCC[C@H]([C@H](O)c2ccccc2Cl)N1` [Example 24, (R)-(2-Chlorophenyl)((2R,6S)-6-propylpiperidin-2-yl)methanol], the figures for the Emax in assay [1] (setting [3]) and in assay [2] (setting [4]) were 25 to 50% and less than 25%, respectively.
Regarding `CCC[C@H]1CCC[C@@H]([C@H](O)c2cccc(Cl)c2)N1` [Example 36, (R)-(3-Chlorophenyl)((2S,6S)-6-propylpiperidin-2-yl)methanol hydrochloride], the Emax was 25 to 50% in assay [1] (setting [3]) and less than 25% in assay [2] (setting [4]).
In the case of `CCC[C@H]1CCC[C@H]([C@@H](O)c2cccc(F)c2)N1` [Example 18, (S)-(3-Fluorophenyl)((2R,6S)-6-propylpiperidin-2-yl)methanol], the figures for the Emax in assay [1] (setting [3]) and in assay [2] (setting [4]) were 50 to 75% and less than 25%, respectively.
As to `C[C@H]1CC[C@@H]([C@H](O)c2ccccc2)N1` (racemic) [Example 11, Racemic mixture of (R)-((2S,5S)-5-Methylpyrrolidin-2-yl)(phenyl)methanol and (S)-((2R,5R)-5-Methylpyrrolidin-2-yl)(phenyl)methanol], the Emax in assay [1] is 25 to 50%; in assay [2] it was less than 25%.
As to `CCC[C@H]1CCC[C@H]([C@H](O)c2ccc(F)c(F)c2)N1` [Example 4, (R)-(3,4-Difluorophenyl)((2R,6S)-6-propylpiperidin-2-yl)methanol], the Emax was 50 to 75% in assay [1] (setting [3]) and less than 25% in assay [2] (setting [4]).
As to `CCC[C@@H]1CC[C@H]([C@@H](O)c2cccc(F)c2)N1` [Example 39, (S)-(3-Fluorophenyl)((2R,5R)-5-propylpyrrolidin-2-yl)methanol Hydrochloride], the Emax in assay [1] (setting [3]) was 50 to 75%; in assay [2] (setting [4]) it was less than 25%.
On to `CCC[C@H]1CC[C@@H]([C@@H](O)c2cccc(F)c2)N1` [Example 42, (S)-(3-Fluorophenyl)((2S,5S)-5-propylpyrrolidin-2-yl)methanol Hydrochloride], for which the Emax in assay [1] (setting [3]) was 50 to 75%; in assay [2] (setting [4]) it was less than 25%.
On to `CCC[C@@H]1CC[C@@H]([C@@H](O)c2cccc(F)c2)N1` [Example 44, (S)-(3-Fluorophenyl)((2S,5R)-5-propylpyrrolidin-2-yl)methanol Hydrochloride], for which the Emax was 50 to 75% in assay [1] (setting [3]) and less than 25% in assay [2] (setting [4]).
`CCC[C@H]1CCC[C@H]([C@@H](O)c2cccc(Cl)c2)N1` [Example 21, (S)-(3-Chlorophenyl)((2R,6S)-6-propylpiperidin-2-yl)methanol hydrochloride]: the Emax in assay [1] (setting [3]) was 25 to 50%; in assay [2] (setting [4]) it was less than 25%.
On the same counts, the results for `CCC[C@H]1CCC[C@H]([C@@H](O)c2ccc(F)c(F)c2)N1` [Example 28, (S)-(3,4-Difluorophenyl)((2R,6S)-6-propylpiperidin-2-yl)methanol] are 25 to 50% and less than 25%.
Consider `CCC[C@H]1CC[C@@H]([C@H](O)c2cccc(F)c2)N1` [Example 41, (R)-(3-fluorophenyl)((2S,5S)-5-propylpyrrolidin-2-yl)methanol Hydrochloride], for which the results for the Emax in assay [1] (setting [3]) and in assay [2] (setting [4]) were 50 to 75% and less than 25%, respectively.
Turning to `CCC[C@@H]1CCC[C@@H]([C@H](O)c2cccc(Cl)c2)N1` [Example 30, (R)-(3-Chlorophenyl)((2S,6R)-6-propylpiperidin-2-yl)methanol hydrochloride], the Emax was more than 75% in assay [1] (setting [3]) and less than 25% in assay [2] (setting [4]).
Turning to `CCC[C@H]1CC[C@H](C(O)c2cccc(O)c2)N1` (stereo in doubt) [Example 46, 3-((R)-hydroxy((2R,5S)-5-propylpyrrolidin-2-yl)methyl)phenol], the Emax in assay [1] (setting [3]) was 50 to 75%; in assay [2] (setting [4]), less than 25%.
The corresponding values for `CCC[C@H]1CCC[C@H]([C@H](O)c2ccc(F)cc2)N1` [Example 25, (R)-(4-Fluorophenyl)((2R,6S)-6-propylpipehdin-2-yl)methanol] are 50 to 75% and less than 25%.

These data come from patent US11427539B2, “Beta-hydroxy heterocyclic amines and their use in the treatment of hyperglycaemia” (ATROGI AB, priority 2017, dated 2022).
